This passage reports TGI and GI50 results from PubChem BioAssay (NCI).

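Exposure lasted 48 hours, with cells grown in 96-well plates and compounds tested at five concentrations. Abbreviation: GI50, concentration required for 50% inhibition of growth. At the TGI there is no net growth.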

Test systems include HL-60(TB) leukemia; HOP-62 NSCLC; HOP-92 NSCLC; OVCAR-8 ovarian; RXF 393 renal; SF-295 CNS; SN12C renal; SR leukemia; U251 CNS; UACC-257 melanoma.
What all share (assay): NCI-60 cell line screen, 48 h

With `CC(=O)OC[C@]1(O)CC[C@@]23CC1C[C@@H]2CCC1C(C)(C)CCC[C@@]13C` (stereo not given in full), the TGI in the assay on HL-60(TB) leukemia stood at 20.4 µM; with HOP-62 NSCLC, 32.2 µM; in the assay on HOP-92 NSCLC, 27.8 µM; in the assay with OVCAR-8 ovarian, 32 µM; in the assay with RXF 393 renal it was 22.9 µM; in the assay on SF-295 CNS, 32 µM. In addition, the TGI in the assay on SN12C renal worked out at 24.7 µM; in the assay with SR leukemia, 23.6 µM; in the assay with U251 CNS, 27.1 µM; in the assay with UACC-257 melanoma, 29.4 µM.

For `CC(C)[C@H](CO)Nc1nc(Nc2ccc(C(=O)NCCNS(=O)(=O)c3cccc4c(N(C)C)cccc34)c(Cl)c2)c2ncn(C(C)C)c2n1`, the GI50 was 2.65 µM with HL-60(TB) leukemia; 3.69 µM in the assay with HOP-62 NSCLC; 2 µM in the assay on HOP-92 NSCLC; 3.18 µM with OVCAR-8 ovarian; 0.381 µM in the assay with RXF 393 renal; 1.75 µM in the assay with SF-295 CNS. For the same compound, the GI50 in the assay with SN12C renal is 2.81 µM; with SR leukemia, 1.87 µM; in the assay with U251 CNS, 2.72 µM; in the assay on UACC-257 melanoma, 2.66 µM. In addition, the TGI with HL-60(TB) leukemia was 7.43 µM; in the assay with HOP-62 NSCLC, greater than 100 µM; in the assay with HOP-92 NSCLC, greater than 100 µM; in the assay with OVCAR-8 ovarian, greater than 100 µM; with RXF 393 renal, 1.78 µM; in the assay on SF-295 CNS it was greater than 100 µM. The TGI in the assay with SN12C renal is greater than 100 µM; in the assay on SR leukemia, greater than 24.9 µM; in the assay with U251 CNS, greater than 100 µM; with UACC-257 melanoma, greater than 100 µM.

For `Nc1c(Br)cc(Br)c2c1[nH]c(=O)c1ccccc12`, the GI50 in the assay on HL-60(TB) leukemia is greater than 100 µM; in the assay on HOP-62 NSCLC, 2.56 µM; with HOP-92 NSCLC, 1.96 µM; in the assay with OVCAR-8 ovarian, 4.04 µM; in the assay with RXF 393 renal, 4.7 µM; with SF-295 CNS, 3.1 µM. Besides, the GI50 was 8.09 µM in the assay with SN12C renal, 2.39 µM in the assay with SR leukemia, 5.08 µM with U251 CNS and 21.7 µM in the assay with UACC-257 melanoma. The TGI in the assay with HL-60(TB) leukemia is greater than 100 µM; in the assay on HOP-62 NSCLC, 6.39 µM; with HOP-92 NSCLC, 8.57 µM; with OVCAR-8 ovarian it was 26.5 µM; in the assay with RXF 393 renal, 22.1 µM; with SF-295 CNS it was 10.2 µM. Further, the TGI was greater than 100 µM with SN12C renal, 5.91 µM in the assay on SR leukemia, 26.7 µM with U251 CNS and greater than 100 µM in the assay on UACC-257 melanoma.

As to `Cc1cc2nc3c4cc(N)ccc4n(CCN(C)C)c3nc2cc1C`, the GI50 was 0.947 µM with HL-60(TB) leukemia; 0.687 µM in the assay with HOP-62 NSCLC; 0.527 µM in the assay with HOP-92 NSCLC; 0.584 µM in the assay with OVCAR-8 ovarian; 0.912 µM with RXF 393 renal; 0.705 µM in the assay on SF-295 CNS. The GI50 with SN12C renal was 0.484 µM; in the assay on SR leukemia, 0.285 µM; in the assay on U251 CNS, 0.613 µM; with UACC-257 melanoma, 1.21 µM. Also, the TGI in the assay with HL-60(TB) leukemia came out at 4.24 µM; in the assay with HOP-62 NSCLC, 14.7 µM; in the assay on HOP-92 NSCLC, 5.05 µM; in the assay with OVCAR-8 ovarian, 12.8 µM; with RXF 393 renal, 2.72 µM; in the assay on SF-295 CNS it was 4.03 µM. The TGI in the assay with SN12C renal was 11.7 µM; in the assay on SR leukemia it was 7.29 µM; in the assay on U251 CNS, 11.1 µM; in the assay with UACC-257 melanoma, 5.14 µM.

For the compound `COc1cc(-c2nn(-c3cccc(NC(=O)Nc4cc(C(F)(F)F)cc(C(F)(F)F)c4)c3)cc2-c2ccncc2)ccc1Cl`, the GI50 is 0.551 µM in the assay on HL-60(TB) leukemia; 0.749 µM in the assay with HOP-62 NSCLC; 0.107 µM in the assay on HOP-92 NSCLC; 0.524 µM in the assay on OVCAR-8 ovarian; 0.841 µM with RXF 393 renal; 0.241 µM in the assay with SF-295 CNS. The GI50 is 0.471 µM in the assay on SN12C renal, 0.8 µM in the assay on SR leukemia, 0.36 µM in the assay on U251 CNS and 0.755 µM in the assay with UACC-257 melanoma. Also, the TGI was found to be 11.9 µM in the assay with HL-60(TB) leukemia; 1.55 µM in the assay with HOP-62 NSCLC; 0.64 µM in the assay with HOP-92 NSCLC; 3.98 µM in the assay with OVCAR-8 ovarian; 2.15 µM with RXF 393 renal; 0.921 µM in the assay on SF-295 CNS. Also, the TGI is 1.96 µM in the assay with SN12C renal, 2.99 µM in the assay with SR leukemia, 1.13 µM in the assay on U251 CNS and 2.21 µM in the assay with UACC-257 melanoma.

For `O=C1C(=O)c2ccccc2C(O)=C1CC=C(Br)Br`, the GI50 is 5.37 µM in the assay with HL-60(TB) leukemia; 9.01 µM in the assay with HOP-62 NSCLC; 12.5 µM in the assay with HOP-92 NSCLC; 2.14 µM with OVCAR-8 ovarian; 14.3 µM with RXF 393 renal; 3.29 µM in the assay with SF-295 CNS. For the same compound, the GI50 with SN12C renal was 5.7 µM; with SR leukemia, 2.57 µM; in the assay with U251 CNS, 0.976 µM; in the assay with UACC-257 melanoma it was 11 µM. The TGI is 30.4 µM in the assay on HL-60(TB) leukemia; greater than 100 µM in the assay on HOP-62 NSCLC; 76.4 µM in the assay with HOP-92 NSCLC; 66.8 µM in the assay on OVCAR-8 ovarian; 80.7 µM with RXF 393 renal; greater than 100 µM with SF-295 CNS. Further, the TGI stood at 77.9 µM with SN12C renal, 55.9 µM with SR leukemia, 52.7 µM in the assay with U251 CNS and 38.4 µM in the assay on UACC-257 melanoma.

Consider `CC(C)(C)c1nn(-c2ccccc2)c2c1C(=O)CSC(c1ccccc1Cl)N2` (stereo not given), for which the GI50 in the assay with HL-60(TB) leukemia was 2.28 µM; in the assay with HOP-62 NSCLC, 4.47 µM; in the assay with HOP-92 NSCLC it was 0.82 µM; with OVCAR-8 ovarian it was 6.65 µM; in the assay on RXF 393 renal it was 0.545 µM; with SF-295 CNS, 0.746 µM. The GI50 in the assay with SN12C renal was 3.26 µM; with SR leukemia, 0.413 µM; in the assay on U251 CNS, 2.41 µM; in the assay with UACC-257 melanoma, 2.78 µM. Also, the TGI in the assay with HL-60(TB) leukemia was found to be 10.2 µM; in the assay with HOP-62 NSCLC, 21.8 µM; with HOP-92 NSCLC it was 14.4 µM; in the assay on OVCAR-8 ovarian, 30.2 µM; in the assay with RXF 393 renal, 3.11 µM; in the assay on SF-295 CNS it was 10.5 µM. In addition, the TGI with SN12C renal stood at 14.7 µM; in the assay on SR leukemia, 9.89 µM; in the assay with U251 CNS, 15.5 µM; in the assay with UACC-257 melanoma it was 14.7 µM.
